Assay results as given in ChEMBL document CHEMBL5113460, “Discovery of dual inhibitors of topoisomerase I and Cyclooxygenase-2 for colon cancer therapy” (Eur J Med Chem, 2022).
Calls of active or inactive are those of the source. The rule behind the calls is not given here.

Key:
RKO [1] = assay: Induction of apoptosis in human RKO cells assessed as late apoptotic cells at 6 uM incubated for 24 hr by Annexin-V-FITC/PI staining based flow cytometry (Rvb= 4.49%); assay type: functional
HT-29 [2] = assay: Antitumor activity against human HT-29 cells xenografted in BALB/c mouse assessed as inhibition of tumor microvessel density by measuring CD31-index at 15 mg/kg, ip bid for 14 days by immunohistochemical analysis; assay type: functional; details: time 14 day
HT-29 [3] = assay: Induction of apoptosis in human HT-29 cells assessed as early apoptotic cells at 4 uM incubated for 24 hr by Annexin-V-FITC/PI staining based flow cytometry (Rvb=6.25%); assay type: functional
HT-29 [4] = assay: Antitumor activity against human HT-29 cells xenografted in BALB/c mouse assessed as inhibition of tumor cell proliferation at 15 mg/kg, ip bid for 14 days by Ki67 staining based immunohistochemical analysis (Rvb= 16.61+/-1.05%); assay type: functional; set-up: scale not given: the % may be the effect or the level left; details: time 14 day
HCT-116 = assay: Antitumor activity against human HCT-116 cells assessed as inhibition of cell proliferation incubated for 72 hrs by MTT assay; assay type: functional, cell-based; details: HCT-116, 72 h
HT-29 [5] = assay: Induction of apoptosis in human HT-29 cells assessed as increase in Bax protein level at 2 to 8 uM incubated for 24 hrs by western blot analysis; assay type: functional, cell-based; details: dose 2-8 µM
RKO [6] = assay: Induction of apoptosis in human RKO cells assessed as increase in cleaved caspase-3 protein level at 3 to 9 uM incubated for 24 hrs by western blot analysis; assay type: functional, cell-based; details: dose 3-9 µM
HT-29 [7] = assay: Antitumor activity against human HT-29 cells xenografted in BALB/c mouse assessed as inhibition of tumor microvessel density by measuring CD31-index at 30 mg/kg, ip bid for 14 days by immunohistochemical analysis; assay type: functional; details: time 14 day
RKO [8] = assay: Induction of apoptosis in human RKO cells assessed as increase in Bax protein level at 3 to 9 uM incubated for 24 hrs by western blot analysis; assay type: functional, cell-based; details: dose 3-9 µM
RKO [9] = assay: Induction of apoptosis in human RKO cells assessed as reduction in mitochondrial membrane potential at 3 to 9 uM by TMRE staining based flow cytometry; assay type: functional, cell-based; details: dose 3-9 µM
HT-29 [10] = assay: Induction of cell cycle arrest in human HT-29 cells assessed as ratio of G1/G0 phase at 2 to 8 uM incubated for 24 hrs by flow cytometry (Rvb= 55.20%); assay type: functional; details: dose 2-8 µM
HT-29 [11] = assay: Antiproliferative activity against human HT-29 cells assessed as inhibition of cell proliferation incubated for 24 to 72 hrs by MTT assay; assay type: functional, cell-based; details: time 24-72 hrs, DDE = dose-dependent effect
HT-29 [12] = assay: Induction of apoptosis in human HT-29 cells assessed as viable cells at 4 uM incubated for 24 hr by Annexin-V-FITC/PI staining based flow cytometry (Rvb= 83.5%); assay type: functional; details: read-out: Activity
HT-29 [13] = assay: Induction of apoptosis in human HT-29 cells assessed as early apoptotic cells at 2 uM incubated for 24 hr by Annexin-V-FITC/PI staining based flow cytometry (Rvb=6.25%); assay type: functional
RKO [14] = assay: Induction of apoptosis in human RKO cells assessed as viable cells at 6 uM incubated for 24 hr by Annexin-V-FITC/PI staining based flow cytometry (Rvb= 87.9%); assay type: functional; details: read-out: Activity
RKO [15] = assay: Induction of apoptosis in human RKO cells assessed as increase in cleaved caspase-9 protein level at 3 to 9 uM incubated for 24 hrs by western blot analysis; assay type: functional, cell-based; details: dose 3-9 µM
HT-29 [16] = assay: Induction of apoptosis in human HT-29 cells assessed as increase in cleaved caspase-3 protein level at 2 to 8 uM incubated for 24 hrs by western blot analysis; assay type: functional, cell-based; details: dose 2-8 µM
[17] = Cmax in Sprague-Dawley rat at 30 mg/kg, po and measured upto 12 hrs by LC-MS analysis; assay type: ADME, organism-based; set-up: time < 12 hrs, dose 30 mg/kg, route po; details: in vivo
RKO [18] = assay: Induction of DNA damage in human RKO cells assessed as increase in tail length at 3 to 9 uM incubated for 24 hrs by Comet assay; assay type: functional, cell-based; details: dose 3-9 µM
HT-29 [19] = assay: Induction of apoptosis in human HT-29 cells assessed as viable cells at 8 uM incubated for 24 hr by Annexin-V-FITC/PI staining based flow cytometry (Rvb= 83.5%); assay type: functional; details: read-out: Activity
HT-29 [20] = assay: Induction of apoptosis in human HT-29 cells assessed as necrotic cells at 4 uM incubated for 24 hr by Annexin-V-FITC/PI staining based flow cytometry (Rvb=1.67%); assay type: functional
SW480 = assay: Antitumor activity against human SW480 cells assessed as inhibition of cell proliferation incubated for 72 hrs by MTT assay; assay type: functional, cell-based; details: SW480, 72 h
HT-29 [21] = assay: Induction of apoptosis in human HT-29 cells assessed as early apoptotic cells at 8 uM incubated for 24 hr by Annexin-V-FITC/PI staining based flow cytometry (Rvb=6.25%); assay type: functional
HT-29 [22] = assay: Antitumor activity against human HT-29 cells xenografted in BALB/c mouse assessed as tumor necrosis at 15 to 30 mg/kg, ip bid for 14 days by hematoxylin-eosin staining analysis; assay type: functional, organism-based; details: dose 15-30 mg/kg, time 14.0 day
RKO [23] = assay: Inhibition of NF-kappaB signalling pathway in human RKO cells assessed as decrease in phosphorylated IkappaB level at 3 to 9 uM incubated for 24 hrs by Western blot analysis; assay type: cell-based; details: dose 3-9 µM
HT-29 [24] = assay: Induction of apoptosis in human HT-29 cells assessed as viable cells at 2 uM incubated for 24 hr by Annexin-V-FITC/PI staining based flow cytometry (Rvb= 83.5%); assay type: functional; details: read-out: Activity
HT-29 [25] = assay: Induction of apoptosis in human HT-29 cells assessed as late apoptotic cells at 4 uM incubated for 24 hr by Annexin-V-FITC/PI staining based flow cytometry (Rvb=8.60%); assay type: functional
HT-29 [26] = assay: Induction of apoptosis in human HT-29 cells assessed as late apoptotic cells at 2 uM incubated for 24 hr by Annexin-V-FITC/PI staining based flow cytometry (Rvb=8.60%); assay type: functional
[27] = Tmax in Sprague-Dawley rat at 100 mg/kg, po and measured upto 24 hrs by LC-MS analysis; assay type: ADME, organism-based; details: in vivo
[28] = molecular target: Prostaglandin G/H synthase 2 (Homo sapiens) (UniProt P35354); assay: Inhibition of COX-2 (unknown origin) at 30 uM
[29] = molecular target: Prostaglandin G/H synthase 2 (Homo sapiens) (UniProt P35354); assay: Inhibition of COX-2 (unknown origin) at 3 uM

Chain of Prostaglandin G/H synthase 2 (Homo sapiens) (P35354 whole entry, looked up): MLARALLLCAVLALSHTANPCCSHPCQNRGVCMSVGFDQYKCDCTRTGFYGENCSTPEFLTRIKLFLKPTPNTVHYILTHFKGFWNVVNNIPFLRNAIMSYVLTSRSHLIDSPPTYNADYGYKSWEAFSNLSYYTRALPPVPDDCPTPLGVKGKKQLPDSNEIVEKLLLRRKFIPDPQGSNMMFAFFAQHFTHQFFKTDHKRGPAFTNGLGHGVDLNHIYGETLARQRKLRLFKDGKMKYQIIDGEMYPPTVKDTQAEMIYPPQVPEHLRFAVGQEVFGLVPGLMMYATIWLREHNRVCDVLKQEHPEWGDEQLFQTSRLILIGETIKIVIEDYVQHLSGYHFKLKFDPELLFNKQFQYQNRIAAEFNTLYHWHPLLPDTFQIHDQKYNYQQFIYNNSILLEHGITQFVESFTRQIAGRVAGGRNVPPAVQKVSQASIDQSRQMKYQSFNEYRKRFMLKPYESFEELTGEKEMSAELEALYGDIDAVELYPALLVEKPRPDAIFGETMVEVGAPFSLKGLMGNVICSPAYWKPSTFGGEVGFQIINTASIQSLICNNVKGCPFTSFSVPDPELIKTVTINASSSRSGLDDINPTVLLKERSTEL

Q: With `Cc1c(Cl)cccc1Nc1ccccc1C(=O)Nc1ccc(N2CCNCC2)cc1` as the compound, how does the Activity (RKO [1]) read?
A: 6.88%

Q: And the Inhibition_index (HT-29 [2])?
A: 10.67

Q: What about the Activity (HT-29 [3]) of the same compound?
A: 4.95%

Q: What about the Activity (HT-29 [4]) of the same compound?
A: 3.74%

Q: And the IC50 (HCT-116)?
A: 8.42 µM

Q: And the Activity (HT-29 [5])?
A: Active

Q: What about the Activity (RKO [6]) of the same compound?
A: Active

Q: What about the Inhibition_index (HT-29 [7]) of the same compound?
A: 6

Q: And the Activity (RKO [8])?
A: Active

Q: What about the Activity (RKO [9]) of the same compound?
A: Active

Q: What about the Activity (HT-29 [10]) of the same compound?
A: 65.17%

Q: And the Activity (HT-29 [11])?
A: Dde

Q: And the viability at 4 µM (HT-29 [12])?
A: 80%

Q: And the Activity (HT-29 [13])?
A: 4.85%

Q: And the viability at 6 µM (RKO [14])?
A: 81.9%

Q: And the Activity (RKO [15])?
A: Active

Q: And the Activity (HT-29 [16])?
A: Active

Q: What about the Cmax [17] of the same compound?
A: 1600 ng/mL

Q: And the Activity (RKO [18])?
A: Active

Q: What about the viability at 8 µM (HT-29 [19]) of the same compound?
A: 68.9%

Q: And the Activity (HT-29 [20])?
A: 1.06%

Q: And the IC50 (SW480)?
A: 7.36 µM

Q: And the Activity (HT-29 [21])?
A: 3.96%

Q: And the Activity (HT-29 [22])?
A: Active

Q: And the inhibition (RKO [23])?
A: Active

Q: And the viability at 2 µM (HT-29 [24])?
A: 82.6%

Q: And the Activity (HT-29 [25])?
A: 14%

Q: What about the Activity (HT-29 [26]) of the same compound?
A: 11%

Q: What about the Tmax [27] of the same compound?
A: 3.67 h

Q: What about the inhibition [28] of the same compound?
A: 100%

Q: And the inhibition [29]?
A: 74.2%
